Results taken from article PMC6158096 (Molecular microbiology, 2018).
Values joined by “and” are separate entries in the source; they are usually repeats but may differ in a detail not shown here. Identical values can stand only once. Like-named read-outs stand apart in the source and are kept apart here. Ends that are not written are not given here. * marks the point of attachment. FITC = O=C1OC2(c3ccc(O)cc3Oc3cc(O)ccc32)c2ccc(NC(=S)*)cc21; Ahx = NCCCCCC(=O)O

Legend:
CcpA = experiment: Fluorescence polarization: FITC-labeled XrpA-N1 binding to CcpA; set-up: species or system Streptococcus mutans; conditions: 10 nM probe, increasing purified protein, 10 μM sXIP
SppA (SMU.508) = experiment: Fluorescence polarization: FITC-labeled XrpA-N1 binding to SppA; set-up: species or system Streptococcus mutans; conditions: 10 nM probe, increasing purified protein, 10 μM sXIP
ComR = experiment: Fluorescence polarization: FITC-labeled XrpA-N1 direct binding to ComR; set-up: species or system Streptococcus mutans; conditions: 10 nM FITC-labeled XrpA-N1, increasing concentrations of sXIP
[1] = system: ComR;sXIP (ComS 11-17) (Streptococcus mutans UA159;Streptococcus mutans); experiment: fluorescence polarization
[2] = system: ComR;sXIP (ComS 11-17) (Streptococcus mutans UA159;Streptococcus mutans); experiment: fluorescence polarization; remark: listed apart in the source

{FITC-Ahx}-MIQNCISILRHFLITLK [FITC-labeled XrpA-N1]
interaction of FITC-labeled XrpA-N1 with CcpA (CcpA): neither showed any ability to interact
interaction of FITC-labeled XrpA-N1 with SppA (SppA (SMU.508)): neither showed any ability to interact

GLDWWSL [sXIP]
effect on fluorescent XrpA-N1 affinity for ComR (ComR): no effect

ATGGGACATTTATGTCCTGTCCCCCACAGGACATAAATGTCCCAT [PcomX ECom-box stem-loop probe]
Kd [1]: 169 nM and 165 nM
Kd [2]: 147 nM
